# Results: patent publication US11203772B2, “Chemoenzymatic synthesis of structurally homogeneous ultra-low molecular weight heparins” (The University of North Carolina at Chapel Hill, priority 2010, dated 2021)
# Key:
# [1] = tested on: factor Xa; details: rabbit, in vivo, sc, 120 ug/kg
# [2] = tested on: factor Xa; experiment: Anticoagulant activity in vivo: anti-Xa activity of rabbit plasma samples; details: rabbits, subcutaneous, 120 μg/kg; compared with one another
# [3] = molecular target: T1, antithrombin (AT) (Homo sapiens, UniProt P01008); experiment: Binding to antithrombin (AT) by affinity coelectrophoresis; details: affinity co-electrophoresis, 35S-labeled compound
# T1 construct: purchased Cutter Biological
# T1 sequence (P01008 33-464): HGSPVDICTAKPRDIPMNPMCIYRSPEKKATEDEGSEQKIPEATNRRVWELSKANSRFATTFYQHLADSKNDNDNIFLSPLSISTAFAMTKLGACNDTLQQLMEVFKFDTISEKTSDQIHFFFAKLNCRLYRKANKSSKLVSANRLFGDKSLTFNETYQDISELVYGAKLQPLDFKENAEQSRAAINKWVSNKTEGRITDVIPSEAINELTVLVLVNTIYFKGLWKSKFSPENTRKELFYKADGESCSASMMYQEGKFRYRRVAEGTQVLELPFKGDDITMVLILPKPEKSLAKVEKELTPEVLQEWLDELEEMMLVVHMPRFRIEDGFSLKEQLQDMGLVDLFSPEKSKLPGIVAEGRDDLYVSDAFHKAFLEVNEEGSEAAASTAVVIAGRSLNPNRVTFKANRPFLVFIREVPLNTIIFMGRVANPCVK
# Description: The dissociation constant (Kd) of each sample and AT was determined using affinity co-electrophoresis (Lee & Lander, 1991). Approximately 4000-5000 cpm of antithrombin-binding ^35S-labeled ULMW heparin construct 1 or 2 was loaded per lane with zones of AT at concentrations 0, 4, 8, 16, 32, 60, 120, 240 and 500 nM. The gel was performed at 400 mA for 2 hours, dried and analyzed on a Phospholmager Storm 860 (Amersham Biosciences, Uppsala, Sweden). The retardation coefficient was calculated at R=(M0-M)/M0, where M0 is the mobility of the polysaccharide through the zone without AT, and M is the mobility of the sample through each separation zone. The retardation coefficient was then plotted against the retardation coefficient divided by its respective concentration of AT. The slope of the line represents −1/Kd.
# [4] = tested on: bovine factor Xa; experiment: Inhibition of factor Xa activity (anti-Xa, chromogenic substrate S-2765, with AT); type: biochemical; details: with human AT, read-out: IC50 value, in vitro anti-Xa activity
# Description: Inhibition effect of the ULMW heparin compounds on the activity of factor Xa. Assays were based on a previously published method (Zhang et al., 2001; Duncan et al., 2004). Briefly, bovine factor Xa (Sigma, St. Louis, Mo., United States of America) was diluted to 5 U/ml with PBS containing 1 mg/ml BSA. Human AT (Cutter Biological) was diluted with PBS containing 1 mg/ml BSA to give a stock solution at the concentration of 27 μM. The chromogenic substrates, S-2765 was from Diapharma and made up at 1 mM in water. The oligosaccharide (ARIXTRA® synthetic ULMW heparin pentasaccharide, ULMW heparin construct 1 and 2) was dissolved in PBS at various concentrations (0.5 to 50 nM). The reaction mixture, which included 25 μl of AT stock solution and 25 μl of the solution containing the sample, was incubated at 37° C. for 2 min. Factor Xa (25 μl) was added. After incubating 37° C. for 4 min, 25 μl of S-2765 was added. The absorbance of the reaction mixture was measured at 405 nm continuously for 10 min. The absorbance values were plotted against the reaction time. The initial reaction rates as a function of concentration were used to calculate the IC50 values.
# The activity of Xa was determined by the rate of the increase of the absorbance at 405 nm. The activity without drugs was defined as 100%. […]
"area under the curve (AUC), anti-Xa activity of plasma samples [1]",Kd [3],IC50 [4],SMILES,pharmacodynamic (PD) profiles [2]
802,9.1 ± 0.2 nM,3.6 nM,O=C(O)C1OC(OC2C(COS(=O)(=O)O)OC(OC3C(C(=O)O)OC(OC4C(COS(=O)(=O)O)OC(OC5C(C(=O)O)OC(OC6C(CO)OC(CO)C6O)C(O)C5O)C(NS(=O)(=O)O)C4O)C(OS(=O)(=O)O)C3O)C(NS(=O)(=O)O)C2OS(=O)(=O)O)C(O)C(O)C1OC1OC(COS(=O)(=O)O)C(O)C(O)C1NS(=O)(=O)O (stereo not shown) [construct 2],very similar
457,–,3 nM,"CO[C@H]1O[C@H](COS(=O)(=O)O)[C@@H](O[C@@H]2O[C@@H](C(=O)O)[C@@H](O[C@H]3O[C@H](COS(=O)(=O)O)[C@@H](O[C@@H]4O[C@H](C(=O)O)[C@@H](O[C@H]5O[C@H](COS(=O)(=O)O)[C@@H](O)[C@H](O)[C@H]5NS(=O)(=O)O)[C@H](O)[C@H]4O)[C@H](OS(=O)(=O)O)[C@H]3NS(=O)(=O)O)[C@H](O)[C@H]2OS(=O)(=O)O)[C@H](O)[C@H]1NS(=O)(=O)O [ARIXTRA®, fondaparinux sodium, reference compound]",very similar
